In patent US7098364B2, “Phenylethanolamine compounds as β2-receptor agonists, and methods of use and preparation thereof” (Shenyang Pharmaceutical University, priority 2001, dated 2006):

These compounds were tested on isolated guinea pig trachea strips (assay: Antagonistic effect on histamine-induced bronchoconstriction in isolated guinea pig trachea strips). Conditions: trachea strips contracted by histamine (10^-6-10^-4 M) to 50% of maximum contraction; compounds at 10^-6 or 3×10^-4 M; Krebs-Hensleit solution, 37° C.
Assay type: cell-based
Method: The antagonistic effects of bronchoconstrtriction induced by histamine of the compounds of the present invention were evaluated by isolated guinea pig trachea strips.
Apparatus: polygrapher recorder, strain gauge transducer
Conditions: Krebs-Hensleit solution; gas mixture(95% O2, 5% CO2); Paper speed: 4 mm/min; 37° C.
Animals: guinea pigs (Harley, purchased from the Experimental Animal Center of China Medical University) of either sex weighting 350–500 g were used.
Reagent: Histamines phosphate solution(10^−6–10^−4M)
Method: Guinea pigs were sacrificed and the trachea strips(2 cm×3 mm) were prepared; the preparation was then mounted under a testing tension of 2 g in an organ bath containing 10 mL Kebs-Hensleits solution at 37° C. and superfused with the gas mixture mentioned above and the preparation was allowed to equilibrate for 2 h before the addition of histamine. When the tension of trachea strips reached 50% of the maximum contraction, the tested compounds was added to bath, and the antagonistic effect (represented as relaxing rate) was calculated as below: Relaxing rate=(Contraction intensity after histamine addition-Contraction intensity after tested compounds addition)/[…]×100%

First: CC(C)NC(CO)c1cc(Cl)c(N)c(C(F)(F)F)c1.Cl (stereo not drawn)
Second: Br.CC(C)(C)NC(CO)c1cc(Cl)c(N)c(C(F)(F)F)c1 (stereo not drawn)
The “Relaxing rate (%)” value of the first is lower: 52.5% for the first, 165.9% for the second.

First: Cl.Nc1c(Br)cc(C(CO)NC2CC2)cc1C(F)(F)F (stereo not drawn)
Second: Cl.Nc1c(Br)cc(C(CO)NC2CCC2)cc1C(F)(F)F (stereo not drawn)
The “Relaxing rate (%)” value of the first is lower: 10.2% for the first, 12.9% for the second.

Compared with `Cl.N#Cc1cc(C(CO)NC2CCC2)cc(Cl)c1N` (stereo not drawn), `Cl.Cl.N#Cc1cc(C(CO)NC2CCC2)cc(Br)c1N` (stereo not drawn) is lower in “Relaxing rate (%)” value: 36.7% for the first, 30.8% for the second.

Going from `CC(C)NC(CO)c1cc(Br)c(N)c(C#N)c1.Cl` (stereo not drawn) to `CC(C)NC(CO)c1cc(Cl)c(N)c(C#N)c1.Cl.Cl` (stereo not drawn) [drawing 7], the “Relaxing rate (%)” value falls from 77.6% to 69.2%.

First: Cl.N#Cc1cc(C(CO)NC2CCC2)ccc1N (stereo not drawn)
Second: Cl.Cl.N#Cc1cc(C(CO)NC2CC2)ccc1N (stereo not drawn)
The “Relaxing rate (%)” value of the first is higher: 18.9% for the first, 15.7% for the second.

First: CC(C)NC(CO)c1ccc(N)c(C#N)c1.Cl (stereo not drawn)
Second: CC(C)(CO)NC(CO)c1ccc(N)c(C#N)c1.Cl (stereo not drawn)
The “Relaxing rate (%)” value of the first is lower: 60.3% for the first, 65.3% for the second.

Going from `CC(C)(CO)NC(CO)c1cc(Cl)c(N)c(C(F)(F)F)c1.Cl` (stereo not drawn) to `CC(C)(CO)NC(CO)c1cc(Br)c(N)c(C(F)(F)F)c1.Cl` (stereo not drawn), the “Relaxing rate (%)” value rises from 85.1% to 128.2%.

Going from `CC(C)(CO)NC(CO)c1cc(Cl)c(N)c(C#N)c1.Cl.Cl` (stereo not drawn) to `CC(C)(CO)NC(CO)c1cc(Br)c(N)c(C#N)c1.Cl` (stereo not drawn), the “Relaxing rate (%)” value rises from 15.3% to 89.6%.

Going from `CC(C)(C)NC(CO)c1ccc(N)c(C(F)(F)F)c1.Cl` (stereo not drawn) to `CC(C)NC(CO)c1cc(Cl)c(N)c(C#N)c1.Cl.Cl` (stereo not drawn) [drawing 20], the “Relaxing rate (%)” value rises from 55.6% to 70.5%.
